# Key:
# MKK6 = target: T1, MKK6 (Homo sapiens, UniProt P52564); test: MKK6 radiometric kinase assay; assay type: biochemical; settings: peptide 100 μM
# T1 construct: purchased Millipore (KinaseProfiler service)
# From the text: (§1) A commercial radiometric assay service was used to test the specificity and potency of MMI-0100 ([…]; SEQ ID NO: 1) by measuring its half maximal inhibitory concentrations (IC50). This quantitative assay measures how much MK2 inhibitor (MMI-0100; […] (SEQ ID NO: 1)) is needed to inhibit 50% of a given biological process or component of a process (i.e., an enzyme, cell, or cell receptor). Specifically, in these assays, a positively charged substrate is phosphorylated with a radiolabeled phosphate group from an ATP if the kinase is not inhibited by an inhibitor peptide. The positively charged substrate then is attracted to a negatively charged filter membrane, quantified with a scintillation counter, and compared to a 100% activity control. ATP concentrations within 15 μM of the apparent Km for ATP were chosen since an ATP concentration near the Km may allow for the kinases to have the same relative amount of phosphorylation activity. The individual conditions for each radiometric assay are as follows.
# The reaction was initiated by adding the MgATP. After incubation for 40 minutes at room temperature, 5 μl of the incubation mix was used to initiate the p38MAPK radiometric assay described above.
# IC50 values for inhibitor peptides were determined using Millipore's IC50 Profiler Express service. The IC50 value was estimated from a 10-point curve of one-half log dilutions. […]
# [1] = tested on: immortalized human pleural mesothelial cells (ATCC CRL-9444); test: IL-6 ELISA in TNF-α-stimulated mesothelial cells; assay type: cell-based
# Procedure: Expression of inflammatory cytokines was induced by applying 1 or 10 ng/ml of TNF-α to cultured mesothelial cells. Briefly, immortalized human pleural mesothelial cells (ATCC CRL-9444) were grown in Medium199 with Earle's BSS, 0.75 mM L-glutamine (Mediatech Inc., Manassas, Va.), 1.25 g/l sodium bicarbonate (Sigma), 3.3 nM epidermal growth factor (EGF) (MBL International, Woburn, Mass.), 40 nM hydrocortisone (Sigma), 870 nM insulin (MBL International), 20 mM HEPES (Sigma), trace elements mixture B (Mediatech Inc., Waltham, Mass.), 10% fetal bovine serum (FBS) (Hyclone), and 1% penicillin/streptomycin (Mediatech Inc., Waltham, Mass.). […] Human mesothelial cells were treated with two different concentrations (1 and 10 ng/mL) of TNF-α for 2, 6, 12, and 24 hours (data not shown). […] Without TNF-α stimulation, mesothelial cells made negligible amounts of IL-6. […] In subsequent experiments designed to determine whether the MMI-0100 peptide ([…]; SEQ ID NO: 1) could reduce TNF-α induced IL-6 expression, both 1 and 10 ng/mL of TNF-α were selected as stimuli. 10 ng/mL of TNF-α is regarded as more physiologically relevant for mesothelial cells.
# Prior to cytokine and/or inhibitor treatment, cells were allowed to acclimate in serum-free media consisting of only Medium199 with Earle's BSS, 0.75 mM L-glutamine, 1.25 g/l sodium bicarbonate, 20 mM HEPES, trace elements mixture B (Mediatech Inc., Waltham, Mass.), and 1% penicillin/streptomycin (Mediatech Inc., Waltham, Mass.) for 24 hours. […] Average concentration of IL-6 (pg/ml per 10^5 cells) at each time was determined by cytokine-specific ELISA.
# [2] = Observation of toxicity, tissue erosion or necrosis
# PRAK = target: T2, PRAK (Homo sapiens, UniProt Q8IW41); test: PRAK radiometric kinase assay; assay type: biochemical; settings: peptide 100 μM
# T2 construct: purchased Millipore (KinaseProfiler service)
# From the text: as §1, with “follows. […]” for “follows.”
# (§2) IC50 values for inhibitor peptides were determined using Millipore's IC50 Profiler Express service. […]
# P38MAPK = test: p38 MAPK radiometric kinase assay; assay type: biochemical; settings: peptide 100 μM
# From the text: as §1, with “ATP concentrations within 15 μM of the apparent Km for ATP were chosen since an ATP concentration near the Km may allow for the kinases to have the same relative amount of phosphorylation activity. The individual conditions for each radiometric assay are as follows.” left out
# For the p38 MAPK (p38 Mitogen-Activated Protein Kinase) radiometric assay, 5-10 mU of p38 MAPK was incubated with 25 mM Tris pH 7.5, 0.02 mM EGTA, 0.33 mg/mL myelin basic protein (a substrate for p38 MAPK), 10 mM MgAcetate, and 10 μM of [y-^33P-ATP] in the final reaction volume of 25 μl. […] The washed P30 filtermat was dried and its radioactivity was measured by scintillation counter.
# as §2
# MK2 = target: T3, MK2 (Homo sapiens, UniProt P49137); test: MK2 radiometric kinase assay; assay type: biochemical
# T3 construct: purchased Millipore (IC50 Profiler Express / KinaseProfiler service)
# From the text: as §1, with “The individual conditions for each radiometric assay are as follows.” left out
# For the MK2 radiometric assay, 5-10 mU of MK2 was incubated with 50 mM Na b-glycerophosphate pH 7.5, 0.1 mM EGTA, 30 μM KKLNRTLSVA (SEQ ID NO: 34; a substrate peptide for MK2), 10 mM MgAcetate, and 10 μM of [y-^33P-ATP] in a final reaction volume of 25 μl. […] The washed P30 filtermat was dried and its radioactivity was measured by scintillation counter.
# as §2
# T3 sequence (P49137 whole entry, species assumed): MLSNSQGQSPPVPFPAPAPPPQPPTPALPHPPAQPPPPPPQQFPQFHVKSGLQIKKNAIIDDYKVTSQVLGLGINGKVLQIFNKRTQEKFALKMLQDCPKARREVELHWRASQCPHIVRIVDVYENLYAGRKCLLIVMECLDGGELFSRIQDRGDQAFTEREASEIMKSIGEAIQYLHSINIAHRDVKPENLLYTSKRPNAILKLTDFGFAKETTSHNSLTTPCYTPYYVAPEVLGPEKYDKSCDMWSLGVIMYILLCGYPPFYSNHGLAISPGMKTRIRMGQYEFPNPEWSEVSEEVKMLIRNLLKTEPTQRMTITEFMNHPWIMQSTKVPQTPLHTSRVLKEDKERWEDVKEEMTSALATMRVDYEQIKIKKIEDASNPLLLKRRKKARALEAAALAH
# T1 sequence (P52564 whole entry, species assumed): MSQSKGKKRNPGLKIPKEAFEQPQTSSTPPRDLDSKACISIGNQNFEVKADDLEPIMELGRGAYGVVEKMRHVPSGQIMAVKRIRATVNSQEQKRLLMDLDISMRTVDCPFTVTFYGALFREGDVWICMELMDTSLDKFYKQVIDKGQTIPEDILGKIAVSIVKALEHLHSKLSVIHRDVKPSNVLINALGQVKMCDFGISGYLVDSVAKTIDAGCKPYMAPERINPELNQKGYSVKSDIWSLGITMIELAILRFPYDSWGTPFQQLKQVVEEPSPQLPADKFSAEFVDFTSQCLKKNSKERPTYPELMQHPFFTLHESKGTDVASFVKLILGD
# T2 sequence (Q8IW41 whole entry, species assumed): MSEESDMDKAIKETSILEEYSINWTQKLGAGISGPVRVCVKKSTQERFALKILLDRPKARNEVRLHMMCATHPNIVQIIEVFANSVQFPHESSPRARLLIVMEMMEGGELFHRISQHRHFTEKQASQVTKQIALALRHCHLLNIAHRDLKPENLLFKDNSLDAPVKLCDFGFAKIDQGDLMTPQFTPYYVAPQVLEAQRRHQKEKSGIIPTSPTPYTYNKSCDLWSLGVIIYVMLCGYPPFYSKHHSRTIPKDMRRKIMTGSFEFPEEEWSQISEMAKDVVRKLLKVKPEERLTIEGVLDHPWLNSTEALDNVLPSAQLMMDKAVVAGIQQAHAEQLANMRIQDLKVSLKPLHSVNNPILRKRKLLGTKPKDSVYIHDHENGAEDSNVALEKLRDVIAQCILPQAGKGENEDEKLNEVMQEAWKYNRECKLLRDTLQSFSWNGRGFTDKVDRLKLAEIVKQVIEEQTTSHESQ
sequence,measurement,setting,value
YARAAARQARAKALARQLGVAA [MMI-0100],"Percent Activity, MKK6",MKK6,50%
same,IL-6 expression,"[1]; TNF-α 1 ng/mL, MMI-0100 1000 or 3000 μM, 6, 12, 24 hours",reduced IL-6 expression to the levels at or below the untreated baseline
same,IL-6 expression,"[1]; TNF-α 10 ng/mL, 3000 μM, every time point",reduced IL-6 expression to the levels of the untreated baseline
same,IL-6 expression,"[1]; TNF-α 10 ng/mL, 6, 12, 24 hours",still effective in reducing IL-6 expression triggered by TNF-α
same,"evidence of toxicity, tissue erosion, or necrosis",[2],"did not show any evidence of toxicity, tissue erosion, or necrosis"
same,"Percent Activity, PRAK",PRAK,100%
same,"Percent Activity, P38MAPK",P38MAPK,60%
same,inhibition of MK2 activity,MK2; concentration used for specificity profiling (Table 2),> 95%
same,"Percent Activity, MK2",MK2; peptide 100 μM,<5%

# Reference: patent US20110288036A1, “Methods for Treating or Preventing Vascular Graft Failure” (priority 2010, published 2011)
